Test: Effect of rimonabant on the weight gain induced by treatment with risperidone (cumulative weight gain and feed consumption)
Assay type: in vivo
Details: female Wistar rats on fat-rich feed, risperidone 0.3 mg/kg i.p., rimonabant 1 mg/kg p.o. (or vehicle p.o.)
Experimental: Female Wistar rats, fed with a fat-rich feed for the three days preceding the treatment and during the treatment, are used.
Groups of 15 animals receive each day: • group 1: risperidone (0.3 mg/kg, i.p.) and the vehicle (p.o.); • group 2: risperidone (0.3 mg/kg, i.p.) and rimonabant (1 mg/kg, p.o.); • group 3: the two vehicles (i.p. and p.o.);
On the ninth day of the treatment, the cumulative weight gain over the nine days of treatment and the feed consumption on day 9 are measured.

SMILES: Cc1nc2n(c(=O)c1CCN1CCC(c3noc4cc(F)ccc34)CC1)CCCC2 [risperidone]
- Cumulative weight gain over the nine days of treatment (15/group, daily dosing for 9 days): 23.5 g ± 1.7
- Mean feed intake on the ninth day (day 9 of treatment): 15.0 g ± 0.7
- Number of rats/group (%) with a weight gain <20 g (nine days of treatment): 20%
- Number of rats/group (%) with a weight gain >20 g (nine days of treatment): 80%

— US20080015186A1, “PHARMACEUTICAL CO[…] C[…] CANNABINOID RECEPTOR ANTAGONIST AND AN ANTIPSYCHOTIC” (SANOFI-AVENTIS, priority 2005, published 2008)
